From article PMC7307906, “Macrocyclic Modalities Combining Peptide Epitopes and Natural Product Fragments” (Journal of the American Chemical Society, 2020)
Several values for one entry are separate records, joined by “and”; a condition that tells them apart may be missing. Equal entries are not always repeated. Where two headings read alike, the source gives them in different places.

[1] = the molecule shown is the open-chain precursor, other bond, 34-membered ring, CH(OMe)3/Et3N, then 6/LiBr/Et3N, DMF, THF, resin, 25.0 °C, with chain assembly
[2] = the molecule shown is the open-chain precursor, other bond, 28-membered ring, CH(OMe)3/Et3N, then 6/LiBr/Et3N, DMF, THF, resin, 25.0 °C, with chain assembly
[3] = the molecule shown is the open-chain precursor, other bond, 37-membered ring, CH(OMe)3/Et3N, then 6/LiBr/Et3N, DMF, THF, resin, 25.0 °C, with chain assembly
[4] = the molecule shown is the open-chain precursor, other bond, 31-membered ring, CH(OMe)3/Et3N, then 7/LiBr/Et3N, DMF, THF, resin, 25.0 °C, with chain assembly
[5] = the molecule shown is the open-chain precursor, other bond, 31-membered ring, CH(OMe)3/Et3N, then 6/LiBr/Et3N, DMF, THF, resin, 25.0 °C, with chain assembly
[6] = other bond, Fmoc removal, intramolecular imine, N-methylmaleimide 1,3-dipolar cycloaddition, resin, 4 steps
[7] = other bond, N-methylmaleimide (RP-04; imine cyclization/1,3-dipolar cycloaddition), resin, 4 steps
[8] = other bond, Fmoc removal (RP-03), imine cyclization/1,3-dipolar cycloaddition, N-methylmaleimide (RP-04), resin, 4 steps
[9] = other bond, Fmoc removal (RP-03), imine cyclization/N-methylmaleimide 1,3-dipolar cycloaddition (RP-04), resin, 3 steps
[10] = other bond, 34-membered ring, imine formation, then N-methylmaleimide cycloaddition (RP-04), resin, 4 steps

H-Gly-MePhe-Ala-His-Ala-Ser-Asn-Lys(4-formylbenzoyl)-Gly-resin?
ring closure, yield after HPLC [1]: 3%

H-Gly-MePhe-Arg-Ala-Asn-Lys(4-formylbenzoyl)-Gly-resin?
ring closure, yield after HPLC [2]: 14%

H-Gly-MePhe-Arg-Phe-Phe-Asn-Ala-Lys(4-formylbenzoyl)-Tyr-resin?
ring closure, yield after HPLC [1]: 3% | ring closure, yield after HPLC (the molecule shown is the open-chain precursor, other bond, 34-membered ring, CH(OMe)3/Et3N, then 7/LiBr/Et3N, DMF, THF, resin, 25.0 °C, with chain assembly): 2%

H-Gly-MePhe-Arg-Phe-Phe-Asn-Ala-Phe-Lys(4-formylbenzoyl)-Gly-resin?
ring closure, yield after HPLC [3]: 2% | ring closure, yield after HPLC (the molecule shown is the open-chain precursor, other bond, 37-membered ring, CH(OMe)3/Et3N, then 7/LiBr/Et3N, DMF, THF, resin, 25.0 °C, with chain assembly): 1%

H-Gly-MePhe-Arg-Phe-Phe-Asn-Ala-Phe-Lys(4-formylbenzoyl)-Tyr-resin?
ring closure, yield after HPLC [3]: 2%

H-Gly-MePhe-Arg-Phe-Phe-Asn-Lys(4-formylbenzoyl)-Gly-resin?
ring closure, yield after HPLC [4]: 6%

H-Gly-MePhe-Arg-Phe-Phe-Asn-Lys(4-formylbenzoyl)-Tyr-resin?
ring closure, yield after HPLC [5]: 3%

H-Gly-MePhe-Arg-dPhe-dPhe-Asn-Ala-Lys(4-formylbenzoyl)-Gly-resin?
ring closure, yield after HPLC (the molecule shown is the open-chain precursor, other bond, 34-membered ring, CH(OMe)3/Et3N, then 11/LiBr/Et3N, DMF, THF, resin, 25.0 °C, with chain assembly): 5%

H-Gly-MePhe-Arg-dPhe-dPhe-Asn-Ala-Lys(4-formylbenzoyl)-Tyr-resin?
ring closure, yield after HPLC [1]: 2%

H-Gly-MePhe-Arg-dPhe-dPhe-Asn-Ala-Phe-Lys(4-formylbenzoyl)-Gly-resin?
ring closure, yield after HPLC [3]: 4%

H-Gly-MePhe-Arg-dPhe-dPhe-Asn-Ala-Phe-Lys(4-formylbenzoyl)-Tyr-resin?
ring closure, yield after HPLC [3]: 2% | ring closure, yield after HPLC (the molecule shown is the open-chain precursor, other bond, 37-membered ring, CH(OMe)3/Et3N, then 11/LiBr/Et3N, DMF, THF, resin, 25.0 °C, with chain assembly): 1%

H-Gly-MePhe-Arg-dPhe-dPhe-Asn-Lys(4-formylbenzoyl)-Gly-resin?
ring closure, yield after HPLC [5]: 2% | ring closure, yield after HPLC [4]: 1% | ring closure, yield after HPLC (the molecule shown is the open-chain precursor, other bond, 31-membered ring, CH(OMe)3/Et3N, then 8/LiBr/Et3N, DMF, THF, resin, 25.0 °C, with chain assembly): 4%

H-Gly-MePhe-Arg-dPhe-dPhe-Asn-Lys(4-formylbenzoyl)-Tyr-resin?
ring closure, yield after HPLC [4]: 3%

H-Gly-MePhe-Asn-Asn-Asn-Lys(4-formylbenzoyl)-Gly-resin?
ring closure, yield after HPLC [2]: 12%

H-Gly-MePhe-Asp-Ile-Asn-Asn-Asn-Lys(4-formylbenzoyl)-Gly-resin
ring closure, yield after HPLC (the molecule shown is the open-chain precursor, other bond, 34-membered ring, CH(OMe)3/Et3N, then 12/LiBr/Et3N, DMF, THF, resin, 25.0 °C, with chain assembly): 3%

H-Gly-MePhe-Asp-Ile-Asn-Asn-Asn-Lys(4-formylbenzoyl)-Gly-resin?
ring closure, yield after HPLC (the molecule shown is the open-chain precursor, other bond, 34-membered ring, imine formation, then 5-benzylidene-1,3-dimethylbarbiturate (14) cycloaddition (RP-04), resin, 4 steps): 11%

H-Gly-MePhe-Asp-Ile-Asn-Asn-Asn-Val-Lys(4-formylbenzoyl)-Gly-resin?
ring closure, yield after HPLC [3]: 5%

H-Gly-MePhe-Glu-Glu-Lys-Asp-Ile-Asn-Asn-Asn-Val-Lys-Lys(4-formylbenzoyl)-Thr-resin?
ring closure, yield after HPLC (the molecule shown is the open-chain precursor, other bond, 49-membered ring, CH(OMe)3/Et3N, then 6/LiBr/Et3N, DMF, THF, resin, 25.0 °C, with chain assembly): 2%

H-Gly-MePhe-Gly-Leu-Gly-Phe-Lys(4-formylbenzoyl)-Phe-resin?
ring closure, yield after HPLC [4]: 5% | ring closure, yield after HPLC (the molecule shown is the open-chain precursor, other bond, 31-membered ring, CH(OMe)3/Et3N, then 11/LiBr/Et3N, DMF, THF, resin, 25.0 °C, with chain assembly): 4%

H-Gly-MePhe-Ile-Asn-Asn-Asn-Lys(4-formylbenzoyl)-Gly-resin?
ring closure, yield after HPLC [5]: 3%

H-Gly-MePhe-Leu-Lys-Pro-Ile-Lys(4-formylbenzoyl)-Gly-resin?
ring closure, yield after HPLC [5]: 8% | ring closure, yield after HPLC [4]: 5% | ring closure, yield after HPLC (the molecule shown is the open-chain precursor, other bond, 31-membered ring, CH(OMe)3/Et3N, then 13/LiBr/Et3N, DMF, THF, resin, 25.0 °C, with chain assembly): 4%

H-Gly-Phe-Asp-Ile-Asn-Asn-Asn-Lys(4-formylbenzoyl)-Gly-resin?
ring closure, yield after HPLC [1]: 2%

H-Gly-Pro-Asp-Ile-Asn-Asn-Asn-Lys(4-formylbenzoyl)-Gly-resin?
ring closure, yield after HPLC [1]: 3%

H-Gly-dMePhe-Asp-Ile-Asn-Asn-Asn-Lys(4-formylbenzoyl)-Gly-resin
ring closure, yield after HPLC [1]: 5%

Y[CRFFNAFC]Y
ring closure, yield after HPLC (disulfide bond, 26-membered ring, DMSO/AcOH, DMSO/AcOH/H2O, 1.56 mM, 25.0 °C, 3 steps): 25%

Y[CRffNAFC]Y
ring closure, yield after HPLC (disulfide bond, 26-membered ring, DMSO/AcOH, DMSO/AcOH/H2O, 1.55 mM, 25.0 °C, 3 steps): 17%

[4-F-Ph-pyrrolidinyl-spirooxindole-NMeFDINNNK]G
ring closure, yield after HPLC (other bond, Fmoc removal (RP-03), imine cyclization/1,3-dipolar cycloaddition, (E)-4-fluorobenzylidene-indolin-2-one, Cu/BINAP (RP-04), resin, 4 steps): 6%

[4-OMePh-pyrrolidinyl-spirooxindole-NMeFDINNNK]G
ring closure, yield after HPLC (other bond, Fmoc removal (RP-03), imine cyclization/1,3-dipolar cycloaddition, (E)-4-methoxybenzylidene-indolin-2-one (RP-04), resin, 4 steps): 3%

[N-3,4,5-OMePh-fused-di-pyrrolidine-NMeFRffNK]G
ring closure, yield after HPLC (other bond, Fmoc removal (RP-03), imine cyclization/N-(3,4,5-trimethoxyphenyl)maleimide 1,3-dipolar cycloaddition (RP-04), resin, 3 steps): 2%

[N-4-OMePh-fused-di-pyrrolidine-NMeFDINNNK]G
ring closure, yield after HPLC (other bond, Fmoc removal (RP-03), imine cyclization/1,3-dipolar cycloaddition, N-(4-methoxyphenyl)maleimide (RP-04), resin, 4 steps): 20%

[N-4-OMePh-fused-di-pyrrolidine-NMeFRffNK]G
ring closure, yield after HPLC (other bond, Fmoc removal (RP-03), imine cyclization/maleimide 8 1,3-dipolar cycloaddition (RP-04), resin, 3 steps): 4%

[N-Me-fused-di-pyrrolidine-FDINNNK]G
ring closure, yield after HPLC [6]: 2%

[N-Me-fused-di-pyrrolidine-NMeFAHASNK]G
ring closure, yield after HPLC [7]: 3%

[N-Me-fused-di-pyrrolidine-NMeFALFPGFK]G, A1
ring closure, yield after HPLC (other bond, 37-membered ring, CH(OMe)3/Et3N, then 6/LiBr/Et3N, DMF, THF, resin, 25.0 °C, 4 steps): 22%

[N-Me-fused-di-pyrrolidine-NMeFDINNNDab]G
ring closure, yield after HPLC (other bond, 32-membered ring, imine formation, then N-methylmaleimide cycloaddition (RP-04), resin, with chain assembly): 3%

[N-Me-fused-di-pyrrolidine-NMeFDINNNDap]G
ring closure, yield after HPLC (other bond, 31-membered ring, imine formation, then N-methylmaleimide cycloaddition (RP-04), resin, with chain assembly): 4%

[N-Me-fused-di-pyrrolidine-NMeFDINNNK]G
ring closure, yield after HPLC [8]: 24%

[N-Me-fused-di-pyrrolidine-NMeFDINNNOrn]G
ring closure, yield after HPLC (other bond, 33-membered ring, imine formation, then N-methylmaleimide cycloaddition (RP-04), resin, with chain assembly): 13%

[N-Me-fused-di-pyrrolidine-NMeFDINNNVK]G
ring closure, yield after HPLC [6]: 5%

[N-Me-fused-di-pyrrolidine-NMeFEEKDINNNVKK]T
ring closure, yield after HPLC [6]: 2%

[N-Me-fused-di-pyrrolidine-NMeFFLK]G, P1
ring closure, yield after HPLC (other bond, imine formation, then N-methylmaleimide cycloaddition (RP-04), resin, with chain assembly): 4%

[N-Me-fused-di-pyrrolidine-NMeFGLGFK]F
ring closure, yield after HPLC [7]: 5%

[N-Me-fused-di-pyrrolidine-NMeFINNNK]G
ring closure, yield after HPLC [6]: 3%

[N-Me-fused-di-pyrrolidine-NMeFNNNK]G
ring closure, yield after HPLC [7]: 21%

[N-Me-fused-di-pyrrolidine-NMeFRANK]G
ring closure, yield after HPLC [9]: 14%

[N-Me-fused-di-pyrrolidine-NMeFRFFNAK]Y
ring closure, yield after HPLC [7]: 3%

[N-Me-fused-di-pyrrolidine-NMeFRffK]Y, O1
ring closure, yield after HPLC (other bond, imine formation, then N-methylmaleimide cycloaddition (RP-04), resin, 4 steps): 6% and 7%

[N-Me-fused-di-pyrrolidine-NMeFRffNAFK]G
ring closure, yield after HPLC [8]: 4%

[N-Me-fused-di-pyrrolidine-NMeFRffNAK]Y
ring closure, yield after HPLC [7]: 2%

[N-Me-fused-di-pyrrolidine-NMeFRffNK]G
ring closure, yield after HPLC [9]: 3%

[N-Me-fused-di-pyrrolidine-NMeGDINNNK]G
ring closure, yield after HPLC (other bond, 34-membered ring, imine formation, then N-methylmaleimide cycloaddition (RP-04), resin, with chain assembly): 8%

[N-Me-fused-di-pyrrolidine-NMeLDINNNK]G
ring closure, yield after HPLC [10]: 3% and 20%

[N-Me-fused-di-pyrrolidine-NMeVDINNNK]G
ring closure, yield after HPLC [10]: 27% and 12%

[N-Me-fused-di-pyrrolidine-NMefDINNNK]G
ring closure, yield after HPLC [6]: 5%

[N-Ph-fused-di-pyrrolidine-NMeFALFPGFK]G, A2
ring closure, yield after HPLC (other bond, 37-membered ring, CH(OMe)3/Et3N, then 7/LiBr/Et3N, DMF, THF, resin, 25.0 °C, with chain assembly): 10%

[N-Ph-fused-di-pyrrolidine-NMeFDINNNDap]G
ring closure, yield after HPLC (other bond, Fmoc removal, intramolecular imine, N-phenylmaleimide 1,3-dipolar cycloaddition, resin, 4 steps): 2%

[N-Ph-fused-di-pyrrolidine-NMeFDINNNK]G
ring closure, yield after HPLC (other bond, Fmoc removal (RP-03), imine cyclization/1,3-dipolar cycloaddition, N-phenylmaleimide (RP-04), resin, 4 steps): 5%

[N-Ph-fused-di-pyrrolidine-NMeFRANK]G
ring closure, yield after HPLC (other bond, Fmoc removal (RP-03), imine cyclization/N-phenylmaleimide 1,3-dipolar cycloaddition (RP-04), resin, 3 steps): 3%
